The source of these data is patent US11590116B2 (THERAVANCE BIOPHARMA R&D IP, LLC, priority 2019, dated 2023).

Some results are limits rather than exact numbers.

The target in assay [1] is T1, recombinant human ALK5 (TGF-βR1) protein (Homo sapiens, UniProt P36897).
T1 construct: purchased Life Technologies PR9075A
T1 sequence (P36897 34-503): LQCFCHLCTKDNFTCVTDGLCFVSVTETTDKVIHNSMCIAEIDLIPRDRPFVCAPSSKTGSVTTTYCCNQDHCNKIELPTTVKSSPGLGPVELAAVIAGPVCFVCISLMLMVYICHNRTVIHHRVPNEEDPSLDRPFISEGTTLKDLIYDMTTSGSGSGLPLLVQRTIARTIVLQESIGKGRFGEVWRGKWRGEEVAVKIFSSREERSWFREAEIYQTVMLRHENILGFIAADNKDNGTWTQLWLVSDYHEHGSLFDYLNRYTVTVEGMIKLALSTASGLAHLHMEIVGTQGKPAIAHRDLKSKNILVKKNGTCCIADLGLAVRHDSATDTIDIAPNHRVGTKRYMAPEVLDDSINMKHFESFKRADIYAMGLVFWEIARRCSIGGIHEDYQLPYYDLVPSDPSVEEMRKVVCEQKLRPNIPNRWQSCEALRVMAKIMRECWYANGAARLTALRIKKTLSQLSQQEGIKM
Kind of assay: Biochemical ALK5 (TGF-βR1) assay to measure pKi (LANCE Ultra ULight kinase assay). The settings on record: apparent pKi from pIC50 by Cheng-Prusoff, read-out: ALK5 pKi (converted). Put shortly: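 Compounds (10 μM to 25 pM) were preincubated 60 min at room temperature with enzyme, then reactions were started with ATP (125 μM stock, 5× final) and run 60 min at 37 °C. EDTA-containing Eu-anti-phospho-Topo IIα (Thr1342) antibody stopped the reaction; TR-FRET read at 665 nm. pIC50 from 4-parameter fit, converted to pKi via Cheng-Prusoff.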
(In general: Time-resolved FRET reads energy transfer from a long-lived donor to a nearby acceptor.)

Assay [2] concerns TGF-β-stimulated SMAD3 phosphorylation in BEAS-2B cells. In words: Cellular ALK5 potency assay, inhibition of TGF-β stimulated pSMAD3 formation in BEAS-2B cells. In kind it is cell-based. The settings on record: Homo sapiens; inhibition of TGF-β stimulated pSMAD3 formation, BEAS-2B cells; read-out: BEAS2B pIC50 (converted). Put shortly:
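SMAD3 phosphorylation was measured by AlphaLISA after 30 min TGF-β stimulation (10 ng/mL final) of BEAS-2B cells preincubated 1 h with compound at 37 °C. Results given as pIC50.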

Take `Cc1cccc(-c2[nH]cnc2-c2ccc3ncc(-c4nc(C(=O)O[C@@H]5CCN(C)C5)cs4)cc3c2)n1` [Compound 744, [(3R)-1-methylpyrrolidin-3-yl] 2-[6-[5-(6-methyl-2-pyridyl)-1H-imidazol-4-yl]-3-quinolyl]thiazole-4-carboxylate]: in assay [1], the Ki was 0.0398 to 0.316 nM. Besides, the IC50 in assay [2] was 25.1 to 158 nM.

On to `Cc1nc(-c2[nH]cnc2-c2ccc3ncc(NCCN4CCCC4)cc3n2)ccc1F` [Compound 568, 6-[5-(5-fluoro-6-methyl-2-pyridyl)-1H-imidazol-4-yl]-N-(2-pyrrolidin-1-ylethyl)-1,5-naphthyridin-3-amine], for which the Ki in assay [1] was 0.0398 to 0.316 nM. Further, the IC50 in assay [2] was 25.1 to 158 nM.

Take `Cc1cccc(-c2[nH]cnc2-c2ccc3ncc(N4CCC5(CCNC5)C4)cc3c2)n1` (stereo not shown) [Compound 387, 3-(2,7-diazaspiro[4.4]nonan-2-yl)-6-[5-(6-methyl-2-pyridyl)-1H-imidazol-4-yl]quinoline]: in assay [1], the Ki is less than 0.0316 nM. Also, in assay [2], the IC50 was 25.1 to 158 nM.

Turning to `Cc1nc(-c2n[nH]cc2-c2ccc3ncc(-c4cc5n(n4)CCCN5)cc3n2)ccc1F` [Compound 651, 2-[3-(5-fluoro-6-methyl-2-pyridyl)-1H-pyrazol-4-yl]-7-(4,5,6,7-tetrahydropyrazolo[1,5-a]pyrimidin-2-yl)-1,5-naphthyridine], the Ki in assay [1] was less than 0.0316 nM. Moreover, the IC50 in assay [2] was less than 20 nM.

For the compound `Cc1cccc(-c2[nH]cnc2-c2ccc3ncc(-c4ccc(C(=O)OC5CNC5)s4)cc3c2)n1` [Compound 1006, azetidin-3-yl 5-(6-(5-(6-methylpyridin-2-yl)-1H-imidazol-4-yl)quinolin-3-yl)thiophene-2-carboxylate], in assay [1], the Ki is 0.0398 to 0.316 nM. Moreover, the IC50 in assay [2] is 25.1 to 158 nM.

Consider `Cc1cccc(-c2n[nH]cc2-c2ccc3ncc(-c4ccn(C)n4)cc3n2)n1` [Compound 692, 7-(1-methylpyrazol-3-yl)-2-[3-(6-methyl-2-pyridyl)-1H-pyrazol-4-yl]-1,5-naphthyridine], for which the Ki in assay [1] is less than 0.0316 nM. In addition, in assay [2], the IC50 was less than 20 nM.

For `CCOC(=O)Cn1cc(-c2cnc3ccc(-c4c[nH]nc4-c4cccc(C)n4)nc3c2)nn1` [Compound 76, ethyl 2-[4-[6-[3-(6-methyl-2-pyridyl)-1H-pyrazol-4-yl]-1,5-naphthyridin-3-yl]triazol-1-yl]acetate], the Ki in assay [1] is 0.0398 to 0.316 nM. Besides, in assay [2], the IC50 was 25.1 to 158 nM.

Regarding `Cc1cccc(-c2n[nH]cc2-c2ccc3ncc(N4CCC(C)(O)CC4)cc3n2)n1` [Compound 617, 4-methyl-1-[6-[3-(6-methyl-2-pyridyl)-1H-pyrazol-4-yl]-1,5-naphthyridin-3-yl]piperidin-4-ol], the Ki in assay [1] was less than 0.0316 nM. For the same compound, in assay [2], the IC50 was less than 20 nM.

Regarding `CNCCn1cc(-c2cnc3ccc(-c4nc[nH]c4-c4ccc(F)c(C)n4)cc3c2)cn1` [Compound 401, 2-[4-[6-[5-(5-fluoro-6-methyl-2-pyridyl)-1H-imidazol-4-yl]-3-quinolyl]pyrazol-1-yl]-N-methyl-ethanamine], the Ki in assay [1] was less than 0.0316 nM. For the same compound, in assay [2], the IC50 is 25.1 to 158 nM.

In the case of `Cc1cccc(-c2[nH]cnc2-c2ccc3ncc(-c4csc(C(=O)OC5CNC5)c4)cc3c2)n1` [Compound 752, azetidin-3-yl 4-[6-[5-(6-methyl-2-pyridyl)-1H-imidazol-4-yl]-3-quinolyl]thiophene-2-carboxylate], the Ki in assay [1] is 0.0398 to 0.316 nM. Further, the IC50 in assay [2] is 25.1 to 158 nM.

For `Cc1cccc(-c2[nH]cnc2-c2ccc3nccc(C(=O)OCC4CNC4)c3c2)n1` [Compound 1038, azetidin-3-ylmethyl 6-[5-(6-methyl-2-pyridyl)-1H-imidazol-4-yl]quinoline-4-carboxylate], the Ki in assay [1] is 0.398 to 3.16 nM. Moreover, the IC50 in assay [2] was 25.1 to 158 nM.

Turning to `Cc1cccc(-c2[nH]ncc2-c2ccc3ncc(C(=O)OCCN4C[C@@H](C)N[C@@H](C)C4)cc3c2)n1` [Compound 1238, 2-[(3S,5R)-3,5-dimethylpiperazin-1-yl]ethyl 6-[5-(6-methyl-2-pyridyl)-1H-pyrazol-4-yl]quinoline-3-carboxylate], in assay [1], the Ki is 0.0398 to 0.316 nM. In addition, in assay [2], the IC50 was 25.1 to 158 nM.

In the case of `Cc1cccc(-c2[nH]cnc2-c2ccc3ncc(-c4ccnc(C(=O)O[C@@H]5CCNC5)c4)cc3c2)n1` [Compound 1050, [(3R)-pyrrolidin-3-yl] 4-[6-[5-(6-methyl-2-pyridyl)-1H-imidazol-4-yl]-3-quinolyl]pyridine-2-carboxylate], in assay [1], the Ki is 0.0398 to 0.316 nM. The IC50 in assay [2] was 200 to 1260 nM.

Consider `CNCCn1cc(-c2ccnc3ccc(-c4c[nH]nc4-c4cccc(C)n4)cc23)cn1` [Compound 865, N-methyl-2-[4-[6-[3-(6-methyl-2-pyridyl)-1H-pyrazol-4-yl]-4-quinolyl]pyrazol-1-yl]ethanamine], for which, in assay [1], the Ki is 0.0398 to 0.316 nM. Besides, the IC50 in assay [2] was 25.1 to 158 nM.

Regarding `Cc1cccc(-c2[nH]ncc2-c2ccc3nccc(C(=O)OC[C@@H]4CCCN4)c3c2)n1` [Compound 1233, [(2S)-pyrrolidin-2-yl]methyl 6-[5-(6-methyl-2-pyridyl)-1H-pyrazol-4-yl]quinoline-4-carboxylate], in assay [1], the Ki is 0.0398 to 0.316 nM. For the same compound, the IC50 in assay [2] was 25.1 to 158 nM.

On to `Cc1cccc(-c2n[nH]cc2-c2ccc3ncc(CCC(=O)N4CCN(C(C)C)CC4)cc3n2)n1` [Compound 372, 1-(4-isopropylpiperazin-1-yl)-3-[6-[3-(6-methyl-2-pyridyl)-1H-pyrazol-4-yl]-1,5-naphthyridin-3-yl]propan-1-one], for which the Ki in assay [1] is 0.398 to 3.16 nM. Besides, the IC50 in assay [2] was 25.1 to 158 nM.

For the compound `Cc1cccc(-c2[nH]cnc2-c2ccc3ncc(C4=CCC(NCC5CCOC5=O)CC4)cc3c2)n1` (stereo not shown) [Compound 456, 3-[[[4-[6-[5-(6-methyl-2-pyridyl)-1H-imidazol-4-yl]-3-quinolyl]cyclohex-3-en-1-yl]amino]methyl]tetrahydrofuran-2-one], the Ki in assay [1] is less than 0.0316 nM. Further, the IC50 in assay [2] was less than 20 nM.

Regarding `COc1cnc2ccc(-c3c[nH]nc3-c3cccc(C)n3)nc2c1` [Compound 321, 7-methoxy-2-[3-(6-methyl-2-pyridyl)-1H-pyrazol-4-yl]-1,5-naphthyridine], the Ki in assay [1] is less than 0.0316 nM. Moreover, the IC50 in assay [2] is less than 20 nM.

With `Cc1cccc(-c2[nH]cnc2-c2ccc3ncc(-c4cccc(N5CCNCC5)n4)cc3c2)n1` [Compound 1100, 6-[5-(6-methyl-2-pyridyl)-1H-imidazol-4-yl]-3-(6-piperazin-1-yl-2-pyridyl)quinoline], the Ki in assay [1] was 0.0398 to 0.316 nM. Also, the IC50 in assay [2] was less than 20 nM.

Consider `Cc1cccc(-c2n[nH]cc2-c2ccc3ncc(N4CC5CN(C)CC54)cc3n2)n1` (stereo not shown) [Compound 304, 7-(3-methyl-3,6-diazabicyclo[3.2.0]heptan-6-yl)-2-[3-(6-methyl-2-pyridyl)-1H-pyrazol-4-yl]-1,5-naphthyridine], for which the Ki in assay [1] was 0.0398 to 0.316 nM. Moreover, the IC50 in assay [2] was 25.1 to 158 nM.

In the case of `Cc1nc(-c2n[nH]cc2-c2ccc3ncc(-c4cnn(CCN)c4)cc3n2)ccc1F` [Compound 192, 2-[4-[6-[3-(5-fluoro-6-methyl-2-pyridyl)-1H-pyrazol-4-yl]-1,5-naphthyridin-3-yl]pyrazol-1-yl]ethanamine], in assay [1], the Ki was less than 0.0316 nM. The IC50 in assay [2] is less than 20 nM.

With `CNC1CCN(c2cnc3ccc(-c4c[nH]nc4-c4cccc(C(C)C)n4)nc3c2)CC1` [Compound 364, 1-[6-[3-(6-isopropyl-2-pyridyl)-1H-pyrazol-4-yl]-1,5-naphthyridin-3-yl]-N-methyl-piperidin-4-amine], in assay [1], the Ki is 0.0398 to 0.316 nM. Also, the IC50 in assay [2] was 25.1 to 158 nM.

With `Cc1cccc(-c2[nH]cnc2-c2ccc3ncc(Nc4ccc(N5CCNCC5)cn4)cc3c2)n1` [Compound 519, 6-[5-(6-methyl-2-pyridyl)-1H-imidazol-4-yl]-N-(5-piperazin-1-yl-2-pyridyl)quinolin-3-amine], the Ki in assay [1] is 0.0398 to 0.316 nM. In addition, the IC50 in assay [2] was 200 to 1260 nM.

As to `Cc1cccc(-c2[nH]nnc2-c2ccc3ncc(N4CCNCC4)cc3c2)n1` [Compound 409, 6-[5-(6-methyl-2-pyridyl)-1H-triazol-4-yl]-3-piperazin-1-yl-quinoline], in assay [1], the Ki was 0.0398 to 0.316 nM. Moreover, in assay [2], the IC50 is 25.1 to 158 nM.

For the compound `CNCCn1cc(-c2cnc3ccc(-c4nn[nH]c4-c4cccc(C)n4)nc3c2)cn1` [Compound 29, N-methyl-2-(4-(6-(5-(6-methylpyridin-2-yl)-1H-1,2,3-triazol-4-yl)-1,5-naphthyridin-3-yl)-1H-pyrazol-1-yl)ethan-1-amine], the Ki in assay [1] is less than 0.0316 nM. For the same compound, the IC50 in assay [2] was 200 to 1260 nM.

Consider `Cc1cccc(-c2n[nH]cc2-c2ccc3ncc(-c4c[nH]nn4)cc3n2)n1` [Compound 355, 2-[3-(6-methyl-2-pyridyl)-1H-pyrazol-4-yl]-7-(1H-triazol-4-yl)-1,5-naphthyridine], for which the Ki in assay [1] is less than 0.0316 nM. Further, in assay [2], the IC50 was less than 20 nM.
